Paper PMC10799935, “Discovery of a peripheral 5HT2A antagonist as a clinical candidate for metabolic dysfunction-associated steatohepatitis” (Nature Communications, 2024)

Experiments:
5HT4E (h) = target: T1, 5HT4E (h) (Homo sapiens, UniProt Q13639); test: 5HT subtype antagonism assay (Eurofins Cerep): 5HT4E; assay type: cell-based; settings: concentration not given
T1 construct: host or cells: CHO cells
Description: (§1) The derivatives were evaluated at a concentration of 1 μM for their antagonist activity on the 5HT2A receptor (Tables 1–3)[33],[34]. Human 5HT2A stably transfected HEK293 cells (a type of cell derived from kidney embryos)[20] were seeded in a 96-well plate (Costar; 3603) at a density of 9 × 10^4 in 100 μL of minimum essential medium (Welgene; LM007-86) containing 10% dialyzed fetal bovine serum (Gibco; 30067–334) and 1% penicillin/streptomycin (Gibco; 15140-122) and kept in a 37 °C incubator for 24 h. The cells were stained with 100 μL of cytosolic calcium dye using the FLIPR calcium 6 assay solution (Molecular devices, #R8190) supplemented with 2.5 mM probenecid (Sigma; P8761) and incubated for 1 h at 37 °C. After 1 h, the designated amount of the compound was treated in each well and incubated for another 1 h at 37 °C. Then, the cells were loaded in a Flexstation 3 microplate reader (Molecular Devices; FlexStaion) and 50 μL of 5 μM 5HT (serotonin hydrochloride, Sigma; H9523) was injected from a source plate (Nunc 96-well polystyrene conical bottom MicroWell Plate, Thermo; 249662) and the fluorescence intensity (Ex/Em-485nm/ 525 nm) was measured. […]
(§2) Antagonism assay Source Stimulus Incubation Measured Detection Method […]

HFD-fed C57BL/6J mice = test: DIO mice: liver histology (H&E), NAFLD activity score (steatosis, inflammation, ballooning); assay type: in vivo, mouse; design: key to Steatosis (NAFLD Activity Score), individual animals / Steatosis score, group mean: steatosis score 0-3 (0 <5% to 3 >66% fat accumulation); key to Total NAFLD Activity Score, difference between medians: Actual (treated vs. Vehicle): total NAS, 0-8 scale (sum of steatosis, inflammation, ballooning); settings: DIO mice; for Lobular inflammation score, Mean Diff. (Vehicle vs. treated) / Steatosis score, Mean Diff. (Vehicle vs. treated) / Total NAFLD Activity Score, Mean Diff. (Vehicle vs. treated): Dunnett's multiple comparisons test; for Lobular inflammation score, group mean / Steatosis score, group mean: PO
Description: Epididymal, inguinal, and liver were harvested, fixed in 10% (w/v) neutral buffered formalin solution (Sigma-Aldrich), and embedded in paraffin. Five-micron-thick tissue sections were deparaffinized, rehydrated, and stained with hematoxylin and eosin (H&E)[10]. The total NAFLD activity score (NAS) is a widely used measure of grading for steatosis, lobular inflammation, and ballooning. The total NAS ranges from 0-8 and is the sum of unweighted scores for steatosis (0: <5%, 1: 5 ~ 33%, 2: 33 ~ 66%, 3: >66% fat accumulation in the liver), lobular inflammation (0: no foci inflammation in x200 field, 1: <2 foci inflammation, 2: 2 ~ 4 foci inflammation, 3: >4 foci inflammation), and hepatocellular ballooning (0: none, 1: few ballooning cells, 2: prominent ballooning cells). MASH was diagnosed when NAS was >5, while non-MASH was diagnosed when NAS was <4. According to the MASH CRN scoring system, a certified pathologist determined the NAS[39]. The histological scoring was performed blindly, without knowledge of any other information.

5HT1D = target: T2, 5HT1D (Rattus norvegicus, UniProt P28565); test: 5HT subtype antagonism assay (Eurofins Cerep): 5HT1D; assay type: cell-based; settings: concentration not given
T2 construct: host or cells: CHO cells
T2 sequence (P28565 whole entry): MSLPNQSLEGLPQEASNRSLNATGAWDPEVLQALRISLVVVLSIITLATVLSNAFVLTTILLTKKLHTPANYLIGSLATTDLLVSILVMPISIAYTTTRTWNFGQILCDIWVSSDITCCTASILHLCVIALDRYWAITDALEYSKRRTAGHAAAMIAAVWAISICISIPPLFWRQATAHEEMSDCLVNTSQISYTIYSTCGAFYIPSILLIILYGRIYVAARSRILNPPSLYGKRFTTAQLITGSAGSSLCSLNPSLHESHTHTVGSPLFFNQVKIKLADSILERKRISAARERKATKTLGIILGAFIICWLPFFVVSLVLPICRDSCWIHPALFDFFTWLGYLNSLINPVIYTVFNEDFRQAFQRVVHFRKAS
Description: as §1, §2

T1 sequence (Q13639 1-378 isoform Q13639-5): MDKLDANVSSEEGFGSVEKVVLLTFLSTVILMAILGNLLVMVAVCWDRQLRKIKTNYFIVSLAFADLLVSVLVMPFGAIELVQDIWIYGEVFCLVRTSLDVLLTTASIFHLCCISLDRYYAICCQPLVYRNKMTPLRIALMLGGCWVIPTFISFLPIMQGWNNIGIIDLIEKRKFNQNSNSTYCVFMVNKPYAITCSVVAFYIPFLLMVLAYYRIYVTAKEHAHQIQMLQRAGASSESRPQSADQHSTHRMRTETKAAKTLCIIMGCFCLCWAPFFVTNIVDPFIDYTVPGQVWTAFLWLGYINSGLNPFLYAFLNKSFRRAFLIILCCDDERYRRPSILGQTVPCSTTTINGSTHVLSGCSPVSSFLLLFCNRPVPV

Cc1nc2n(c(=O)c1CCN1CCC(=C3c4ccc(Cl)cc4CCc4cccnc43)CC1)CCCC2O (stereo not shown) [Compound 11c]
Selectivity 4E: % inhibition (5HT4E (h)): -3% | steatosis, lobular inflammation, and hepatocyte ballooning in liver tissue (H&E) (HFD-fed C57BL/6J mice; 5 and 10 mpk, dose-dependent manner): markedly reduced | Hepatocyte ballooning score, difference between medians: Actual (treated vs. Vehicle) (HFD-fed C57BL/6J mice; 5mpk): 0 | Lobular inflammation score, difference between medians: Actual (treated vs. Vehicle) (HFD-fed C57BL/6J mice; 5mpk): -0.5 | Steatosis score, difference between medians: Actual (treated vs. Vehicle) (HFD-fed C57BL/6J mice; 5mpk): 0 | Total NAFLD Activity Score, difference between medians: Actual (treated vs. Vehicle) (HFD-fed C57BL/6J mice; 5mpk): -1.5 | Lobular inflammation score, Mean Diff. (Vehicle vs. treated) (HFD-fed C57BL/6J mice; 5mpk): 0.3333 | Steatosis score, Mean Diff. (Vehicle vs. treated) (HFD-fed C57BL/6J mice; 5mpk): 0 | Total NAFLD Activity Score, Mean Diff. (Vehicle vs. treated) (HFD-fed C57BL/6J mice; 5mpk): 1.071 | Lobular inflammation score, group median (HFD-fed C57BL/6J mice; 5mpk, Mann-Whitney analysis): 1.500, n=6 | Steatosis score, group median (HFD-fed C57BL/6J mice; 5mpk, Mann-Whitney analysis): 2.000, n=6 | Total NAFLD Activity Score, group median (HFD-fed C57BL/6J mice; 5mpk, Mann-Whitney analysis): 5.000, n=7 | Hepatocyte ballooning score, difference between medians: Actual (treated vs. Vehicle) (HFD-fed C57BL/6J mice; 10mpk): -1 | Lobular inflammation score, difference between medians: Actual (treated vs. Vehicle) (HFD-fed C57BL/6J mice; 10mpk): -1 | Steatosis score, difference between medians: Actual (treated vs. Vehicle) (HFD-fed C57BL/6J mice; 10mpk): -1.5 | Total NAFLD Activity Score, difference between medians: Actual (treated vs. Vehicle) (HFD-fed C57BL/6J mice; 10mpk): -3.5 | Lobular inflammation score, Mean Diff. (Vehicle vs. treated) (HFD-fed C57BL/6J mice; 10mpk): 0.8333 | Steatosis score, Mean Diff. (Vehicle vs. treated) (HFD-fed C57BL/6J mice; 10mpk): 1.5 | Total NAFLD Activity Score, Mean Diff. (Vehicle vs. treated) (HFD-fed C57BL/6J mice; 10mpk): 3.667 | Hepatocyte ballooning score, group median (HFD-fed C57BL/6J mice; 10mpk, Mann-Whitney analysis): 1.000, n=6 | Lobular inflammation score, group median (HFD-fed C57BL/6J mice; 10mpk, Mann-Whitney analysis): 1.000, n=6 | Steatosis score, group median (HFD-fed C57BL/6J mice; 10mpk, Mann-Whitney analysis): 0.5000, n=6 | Total NAFLD Activity Score, group median (HFD-fed C57BL/6J mice; 10mpk, Mann-Whitney analysis): 3.000, n=6 | Lobular inflammation score, group mean (HFD-fed C57BL/6J mice; 5mpk): 1.5 | Steatosis score, group mean (HFD-fed C57BL/6J mice; 5mpk, 5 mg/kg): 2 | Steatosis score, group mean (HFD-fed C57BL/6J mice; 10mpk): 0.5 | Lobular inflammation score, group mean (HFD-fed C57BL/6J mice; 10mpk, 10 mg/kg): 1 | Selectivity 1D: % inhibition (5HT1D): 3%
